Test results from the METLIN SMRT retention time set (Domingo-Almenara et al. 2019).

Assay: gradient 5% acetonitrile 3 min, to 50% in 2 min, to 85% in 15 min, held 3 min, 100 µL/min
Settings: column: Zorbax Extend-C18 2.1 x 50 mm; eluents: water / acetonitrile, 0.1% formic acid
Method in brief: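 Retention times of pure standards were taken from adduct peaks that were selected by computer and manually inspected. Over 3 months, mixtures of ~100 molecules were run by HPLC–quadrupole time-of-flight mass spectrometry in positive and negative ionization mode. The Zorbax Extend-C18 column (2.1 × 50 mm, 1.8 μm) ran at 100 μL/min in water and acetonitrile, each containing 0.1% formic acid, with 40 μL dead volume and 900 μL dwell volume.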

Structure (SMILES) | RP-LC retention time [s]
CC(=O)N1c2ccc(S(=O)(=O)N3CCCC3)cc2CC1C(=O)NC1CCCCCCC1 (stereo not given) | 907
O=C(Cn1ccc2ccc(N3CCOCC3)nc21)NCc1cccc(Cl)c1 | 909
CC(C)Oc1ccc(CNC(=O)C2CCN(S(=O)(=O)c3ccc4c(c3)NC(=O)CO4)CC2)cc1 | 821
COc1ccc(-c2nc(-c3ccc4nncn4c3)no2)c(OC)c1 | 800
Cc1ccc(S(=O)(=O)N(C)c2ccccc2)s1 | 901
C=CCn1nc2ccc(S(=O)(=O)N3CCCC3)cn2c1=O | 706
CCn1nccc1C(=O)N1CCCC1c1cccc(F)c1 (stereo not given) | 812
Cc1noc(C)c1CNC(=O)NC1CCCCC1 | 706
CC(N)C(=O)OC(C)(C)Cc1ccc(Cl)cc1 (stereo not given) | 757
O=C1NCCOCCN(S(=O)(=O)c2cccc3cccnc23)[C@@H]2CCCC[C@H]12 | 735
O=C(NCc1ccc(OC(F)(F)F)cc1)C1CCCN(c2nnc3ccccn23)C1 (stereo not given) | 727
CCCCN(C)C(=O)Cn1nc(C)c2sc(-c3ccccc3)nc2c1=O | 865
CC1(C(=O)NCc2ccccc2)CCCN(C(=O)Nc2ccc(Cl)cc2)C1 (stereo not given) | 962
CCn1cc(S(=O)(=O)N2CCC3(CC2)CC(OCc2ccccc2)CCO3)cn1 (stereo not given) | 897
O=C(CN1c2ccccc2NC2=C(C(=O)CCC2)C1c1ccco1)Nc1ccc(F)cc1 (stereo not given) | 1070
COc1ccc(CNC(=O)c2nc3ccccn3c2-c2ccsc2)cc1 | 810
COc1ccc(S(=O)(=O)N2CCC(C(=O)N[C@@H](C)C(=O)O)CC2)cc1 | 652
COc1ccc(F)cc1S(=O)(=O)NC1CCc2nnc(C)n2CC1 (stereo not given) | 613
Cc1ccc(CNC(=O)c2cccc(-c3nc4cccnc4n3C(C)C)c2)o1 | 793
O=C1CCCc2cc(S(=O)(=O)N3CCN(c4ccccn4)CC3)ccc2N1 | 589
CN1c2ccc(F)cc2C(=O)NC12CCN(C(=O)Cc1ccc(Cl)cc1)CC2 | 795

Structure (SMILES) | RP-LC retention time [s]
CC(C)NC(=O)C(=O)c1c(-c2ccccc2)[nH]c2ccccc12 | 776
O=C(c1ccc2ccccc2n1)N1CCOc2ccc(N3CCOCC3)cc2C1 | 784
COc1ccc(-c2csc(Cc3nc(-c4cccc(Cl)c4)no3)n2)cc1OC | 1160
CN(CC1(C)CCOCC1)C(=O)c1ccccc1Br | 806
COC(=O)c1ccccc1Nc1c(-c2ccc(Br)cc2)nc2cnccn12 | 1130
CCOC(=O)/C=C/c1c(C)[nH]c(=O)[nH]c1=O | 610
CCN1CCN(c2cc(C)c3cc(NC(=S)NCc4cc(OC)ccc4OC)ccc3n2)CC1 | 598
Cc1nnc(-c2cn(CC(=O)Nc3cccc(F)c3)c3ccccc23)o1 | 755
O=S(=O)(Nc1ccc(F)cc1F)c1c[nH]c2ncccc12 | 722
O=C(NCCc1cccs1)C1CCN(Cc2cc3ccccc3n2Cc2ccc(Cl)cc2)CC1 | 846
O=S(=O)(NC1CCCC1)c1ccc(-c2cc(C(F)(F)F)on2)o1 | 1060
O=S(=O)(c1cccc(-c2nnc(-c3ccccc3Br)o2)c1)N1CCCCC1 | 1160
Cc1ccc(S(=O)(=O)Nc2ccc3c(c2)CCC(=O)N3)cc1Cl | 766
CCc1nc2cc(N3CCCC(C(=O)NC4CC4)C3)cnc2nc1CC (stereo not given) | 696
CN1CCn2ccnc2C12CCN(C(=O)Nc1ccc(Cl)cc1C(F)(F)F)CC2 | 650
Cc1ccc(-c2noc(-c3cccc(S(=O)(=O)Nc4ccc(C#N)cc4)c3)n2)cc1 | 1140
COc1cccc(S(=O)(=O)N2CCC(c3noc(-c4cccc(F)c4)n3)CC2)c1 | 1110
COc1ccc(-c2noc(Cn3nc(-c4cccc(OC)c4)ccc3=O)n2)cc1 | 974
Cc1ccccc1-c1noc2ncnc(N3CCN(c4ccccn4)CC3)c12 | 673
COC(=O)CNC(=O)NCCn1c(C(F)(F)F)nc2ccccc21 | 653
Cc1ccc(C)c(S(=O)(=O)N2CCC3(CCC(CN4CCN(C)CC4)O3)CC2)c1 (stereo not given) | 638

Structure (SMILES) | RP-LC retention time [s]
O=C(c1cc(-c2cccs2)[nH]n1)N1CCN(c2ccccn2)CC1 | 596
O=C(NCc1cccnc1)c1cccn1Cc1noc(-c2ccc(Cl)cc2)n1 | 701
Cc1ccc(NS(=O)(=O)c2cn(CC(C)C)c3ncccc23)cc1C | 1040
O=C1CCCN1CCCNc1nc(C2CC2)nc2c1CCC2 | 581
CCN1C=C(C(=O)OCc2cccc(Cl)c2)C(C)=NS1(=O)=O | 1050
O=C(CCn1cnc2cc(-c3noc(-c4cncc(Br)c4)n3)ccc21)N1CCCCCC1 | 814
CCCc1cc(N2CCN(C(=O)c3ccc(N(C)C)cc3)CC2)nc2nncn12 | 612
Cc1ccccc1-n1c(=O)c2sccc2n(Cc2nc(-c3ccc(C(F)(F)F)cc3)no2)c1=O | 1120
CC(C)NC(=O)C1=CCN(C(=O)c2cccc(F)c2)CC1 | 712
CCOc1ccc2c(n1)CCN(C(=O)C1(c3ccccc3)CC1)C2 | 952
O=S(=O)(c1cccc(-c2nnc(-c3ccc(Cl)cc3)o2)c1)N1CCCC1 | 1050
COCCCn1c(=O)c2ccccc2n(Cc2nc(-c3ccc(Br)cc3)no2)c1=O | 1120
COc1cc(OC)c(NC(=O)N(C)CCc2noc(COc3ccccc3)n2)cc1Cl | 957
Cc1ncoc1C(=O)N1CC(c2noc(C3CCCN3CC3CC3)n2)C1 (stereo not given) | 559
CC1CCN(Cc2nc(Cn3ccn4nc(-c5ccc(F)cc5)cc4c3=O)no2)CC1 | 703
COc1cccc(NC(=O)N(C)CCc2noc(COc3ccc(F)cc3)n2)c1 | 856
O=C(NCC1OCCc2ccccc21)C(=O)Nc1ccc(Br)cc1 (stereo not given) | 1070
CCC(=O)Nc1ccc2c(c1)CN(C(=O)c1c(F)cccc1F)C(C(=O)N1CCCC1)C2 (stereo not given) | 700
CCCCNC(=O)Cn1cccc(-c2nc(-c3ccc(F)cc3)no2)c1=O | 790

The remaining lines, values ahead:

RP-LC retention time [s] | Structure (SMILES)
1090 | CSc1ccc(CNC(=O)C2CCCN(c3ncc(-c4ccc(F)cc4)cn3)C2)cc1 (stereo not given)
1070 | Cc1cc(C)cc(NC(=O)Cc2csc3nc(-c4cccc(Cl)c4)cn23)c1
925 | CCn1cc(-c2nc(C)c(C(=O)Nc3ccc4c(c3)OCCO4)s2)c2cccnc21
607 | Cc1nnc([C@@H]2CC(F)(F)CN2C(=O)c2ccc3ncccc3c2)o1
1080 | Cc1ccccc1-c1noc(C2CCCN2C(=O)Nc2cccc(Cl)c2)n1 (stereo not given)
851 | CCOC(=O)c1cccc(NC(=O)C2CCCN(C(=O)C3Sc4ccccc4NC3=O)C2)c1 (stereo not given)
627 | CCN1C(=O)c2cccnc2Sc2cc(NC(C)=O)ccc21
896 | O=C(Cn1cccc(-c2nc(-c3ccc(Br)cc3)no2)c1=O)NC1CCCC1
964 | CCOc1ccc(C(=O)Nc2cccn3nc(C(C)C)nc23)cc1
651 | Cc1nn(CC(=O)NCC2CCCO2)c(=O)c2nn(-c3ccccc3)c(C)c12 (stereo not given)
596 | Cc1ccc2cc(CCC(=O)NCCc3ccccn3)c(=O)[nH]c2c1
891 | Cc1ccnc(NC(=O)C2CCCN(S(=O)(=O)c3cc(-c4noc(C5CCC5)n4)cs3)C2)c1 (stereo not given)
672 | CCOc1ccc(-c2ccc(=O)n(CCNC(=O)c3sc(C)nc3C)n2)cc1
735 | COc1ccc(-c2nc(CN3CCCC3=O)no2)cc1
997 | CCC(=O)NC1Cc2ccccc2C(c2ccccc2)C1 (stereo not given)
851 | COc1cccc(Cn2nc3n(C)c(=O)c4ccc(C(=O)NC5CCCC5)cc4n3c2=O)c1
903 | Cc1ccc(N2C(=O)CN(S(C)(=O)=O)CC2(C)C(=O)NCc2ccc(Cl)cc2)c(C)c1 (stereo not given)
702 | COC(=O)c1c(C)[nH]c(C(=O)N2CCC(CC(=O)N3CCN(c4ccc(OC)cc4)CC3)CC2)c1C
819 | COc1ccc(C)cc1NC(=O)N1CCC2(CC1)NC(=O)c1cccc(Cl)c1N2
856 | Cc1cccc(CNC(=O)C2=C3CCCN3c3ccccc3S2(=O)=O)c1
676 | Cn1c(C2CCN(C(=O)Nc3ccc(Cl)cc3)CC2)cc(=O)n2nccc12
868 | CCn1c(=O)c(N2CCN(C(=O)Nc3ccc4c(c3)OCO4)CC2)nc2ccccc21
800 | CCOc1ccc(-n2c(N3CCSCC3)nc3cc(C(=O)OC)ccc3c2=O)cc1
824 | COCCCNC(=O)C1CCCN(c2ncc(-c3ccc(F)cc3)cn2)C1 (stereo not given)
880 | Cc1ccc(N2CC(c3nc(-c4ccc5c(c4)nnn5C)no3)CC2=O)cc1C (stereo not given)
707 | COc1ccc(NC(=O)C2(C)Oc3cccnc3NC2=O)c(OC)c1 (stereo not given)
610 | Cc1c(CN2CCSCC2)nnn1-c1ccc(F)cc1
824 | O=C(Nc1ccc2c(c1)N(C(=O)c1cccs1)CC2)c1ccccn1
660 | Cc1ccc(N2CC(NC(=O)Nc3nc(C)cs3)CC2=O)cc1 (stereo not given)
